“Also recorded” adds a separate entry of the source.

Results on 3 compounds are retold here after patent US9486440B2, “Uses of indole-ketones or indolidones as neuro-protective drugs” (UNIVERSITY OF MACAU, priority 2011, dated 2016).

For data set [1], the system named is intersegmental-vessel (ISV) formation. The experiment in a line: Intersegmental-vessel formation in Tg(fli-1:EGFP) zebrafish. To be noted: 1 dpf embryos treated 48 hours; SU4312 3-30 μM, PTK787/ZK222584 0.3-3 μM, VRI 0.1-0.3 μM, SU5416 0.3-1 μM. It counts as in vivo. The protocol: (§1) Wild-type zebrafish (AB strain) and Tg (fli-1:EGFP) transgenic zebrafish were maintained as described in the Zebrafish Handbook (Westerfield, 1993). Zebrafish embryos were generated by natural pair-wise mating (3-12 months old) and raised at 28.5° C. in embryo medium (13.7 mM NaCl, 540 μM KCl, pH 7.4, 25 μM Na2HPO4, 44 μM KH2PO4, 300 μM CaCl2, 100 μM MgSO4, 420 μM NaHCO3, pH 7.4). […] An equal concentration of DMSO in embryo medium was used as vehicle control in each experiment.
After drug treatment, zebrafish were removed from microplate and observed for gross morphological changes of blood vessel under a fluorescence microscope (Olympus am Motorized Inverted Microscope, Japan) equipped with a digital camera (DP controller, Soft Imaging System, Olympus). Images were analyzed with Axiovision 4.2 and Adobe Photoshop 7.0.
(§2) Wild-type zebrafish (AB strain) and Tg(fli-1:EGFP) transgenic zebrafish were maintained as described in the Zebrafish Handbook (Westerfield, 1993). Zebrafish embryos were generated by natural pair-wise mating (3-12 months old) and were raised at 28.5° C. in embryo medium (13.7 mM NaCl, 540 μM KCl, pH 7.4, 25 μM Na2HPO4, 44 μM KH2PO4, 300 μM CaCl2, 100 μM MgSO4, 420 μM NaHCO3, pH 7.4). […] Equal concentration of DMSO in embryo medium was used as vehicle control in each experiment.
After drug treatment, zebrafish were removed from the microplate and observed for gross morphological changes of blood vessel under a fluorescence microscope (Olympus am Motorized Inverted Microscope, Japan) equipped with a digital camera (DP controller, Soft Imaging System, Olympus). Images were analyzed with Axiovision 4.2 and Adobe Photoshop 7.0.

The next data set deals with nNOS (Homo sapiens, UniProt P29475). Kind of data set: In vitro NOS activity assay, nNOS. It counts as biochemical. On the set-up: purchased Alexis Biochemicals (Lausen, Switzerland). To be noted: for inhibition of recombinant human nNOS: PTK787/ZK222584 up to 1 mM. The protocol:
In the in vitro NOS activity assay (Li et al., 2007), purified recombinant human nNOS, endothelial NOS (eNOS), and inducible NOS (iNOS) were bought from Alexis Biochemicals (Lausen, Switzerland). NOS activity was determined by monitoring the conversion of L-[3H]arginine to [3H]citrulline following the instructions provided in the kit (Calbiochem, USA). The reaction mixture contained a final volume of 40 μl with 25 mM Tris-Cl at pH 7.4, 3 μM tetrahydrobiopterin, 1 μM FAD, 1 μM FMN, 1 mM NADPH, 0.6 mM CaCl2, 0.1 μM calmodulin, 2.5 μg of pure NOS enzyme, 5 μl L-[3H]arginine (Perkin Elmer, Waltham, Mass., USA), and different concentrations of the tested reagents. The reaction mixture was incubated at 22° C. for 45 min. The reaction was quenched by adding 400 μl of stopping buffer (50 mM HEPES, pH 5.5, and 5 mM EDTA) for nNOS and eNOS reactions or by heating reactive tubes for iNOS. Unreacted L-[3H]arginine was then trapped by 100 μl of equilibrated resin provided in a spin cup followed by centrifugation for 30 s at 13,200 rpm. The filtrate was quantified by liquid scintillation counting.

The subject of a further data set is CGNs. Kind of data set: Hoechst 33342 staining of CGNs after MPP+. To be noted: 20 μM, 35 μM MPP+. The format is cell-based, rat. The protocol: Chromatin condensation was detected by nucleus staining with Hoechst 33342 as described by Li et al., 2005. CGNs (2.7×10^6 cells) grown in a 35-mm dish were washed with ice-cold phosphate-buffered saline (PBS) and fixed with 4% formaldehyde in PBS. The cells were then stained with Hoechst 33342 (5 μg/ml) for 5 min at 4° C. The nuclei were visualized using a fluorescence microscope at ×400 magnification.
Chromatin condensation was detected by staining the cell nucleus with Hoechst 33342 as described by Li et al., 2005. CGNs (2.7×10^6 cells) grown in a 35-mm dish were washed with ice-cold phosphate-buffered saline (PBS), fixed with 4% formaldehyde in PBS, membrane-permeabilized in 0.1% Triton X-100 and blocked in 1% BSA. Cells were then exposed to a primary nNOS antibody (Santa Cruz) overnight at 4° C. followed by incubation at room temperature with an Alexa Fluor 488-conjugated secondary antibody. After immunostaining, cells were then stained with Hoechst 33342 (5 μg/ml) at 4° C. for 5 min. Images were acquired using a fluorescence microscope at ×100 magnification.
To quantify the percentage of apoptotic nuclei in each group, photos of each dish (n=3 dishes in each group for three independent experiments) were taken at five random fields and the numbers of apoptotic nuclei and total nuclei (n=300) were counted, and the percentage of apoptotic nuclei was averaged.

A further data set relates to intracellular NO. The experiment in a line: Intracellular NO in CGNs after MPP+ (DAF-FM diacetate). The format is cell-based, rat. Particulars: 35 μM MPP+. The protocol:
(§3) Intracellular NO was monitored with 4-Amino-5-methylamino-2′,7′-difluorofluorescein (DAF-FM) diacetate, a pH-insensitive fluorescent dye that emits increased fluorescence after reaction with an active intermediate of NO formed during the spontaneous oxidation of NO to NO2 (Sheng et al., 2005). DAF-FM solution was added to the culture medium (final concentration: 5 μM). After 30 min in a CO2 incubator, cultures were washed twice with PBS and incubated for an additional 30 min to allow complete de-esterification of the intracellular diacetate for stronger fluorescence. The DAF-FM fluorescence in CGNs was quantified by a multi-detection microplate reader using excitation and emission wavelengths of 495 nm and 515 nm, respectively. The measured fluorescence values were expressed as a percentage of the fluorescence in the control cells.
as §3, with “(4-amino-5-methylamino-2′,7′-difluorofluorescein) DAF-FM” for “4-Amino-5-methylamino-2′,7′-difluorofluorescein (DAF-FM)”, “After incubation for” for “After”, “another” for “an additional”, “strong” for “stronger”

The subject of a further data set is zebrafish. The experiment in a line: Toxicity to zebrafish. The format is in vivo. Particulars: SU5416 10 μM, VRI 3 μM, SU4312 up to 30 μM. The protocol: as §1, §2

As for `Clc1ccc(Nc2nnc(Cc3ccncc3)c3ccccc23)cc1` [PTK787/ZK222584], the “inhibition of intersegmental-vessel (ISV) formation” value (shortened to “inhibition of intersegmental-vessel”) in data set [1] was “showed differential concentration-dependent inhibition of ISV formation; also recorded: at 1 μM inhibited angiogenesis with the potency similar to that of SU4312 at 30 μM”. Also, the “inhibition of recombinant human nNOS” value on nNOS is reported as “did not inhibit any of the isoforms even at 1 mM”.

For `CN(C)c1ccc(C=C2C(=O)Nc3ccccc32)cc1` [SU4312, 3-[4-(dimethylamino)benzylidenyl]indolin-2-one], in the data set with CGNs, the “nuclear condensation / apoptotic nuclei (Hoechst 33342)” value was “significantly reversed nuclear condensation induced by MPP^+”. For the same compound, the “inhibition of intersegmental-vessel” value in data set [1] is listed as “showed differential concentration-dependent inhibition of ISV formation”. Further, the “MPP+-induced elevation of intracellular NO level” value in the data set with intracellular NO (pre-treatment 2 hours, 24 hours, SU4312 3-30 μM, 7-NI 3-10 μM) is listed as “attenuated MPP^+-triggered elevation of intracellular NO level”. Further, the toxicity to zebrafish result in the data set with zebrafish is “did not induce any neurotoxicity”. Besides, the Ki on nNOS (10 and 20 μM SU4312, 5 to 40 μM L-[3H]arginine, Lineweaver-Burk, read-out: Ki value of nNOS inhibition) is 12.7 µM. Moreover, the “mode of nNOS inhibition” value on nNOS (Lineweaver-Burk plots) was “inhibited nNOS in a non-competitive manner; also recorded: did not alter Km but increased the appeared 1/Vmax”. The “inhibition of recombinant human nNOS” value at nNOS was “directly and selectively inhibit recombinant human nNOS relative to iNOS”.

With `Cc1cc(C)c(/C=C2\C(=O)Nc3ccccc32)[nH]1` [SU5416, (3Z)-3-[(3,5-dimethyl-1H-pyrrol-2-yl)methylidene]-1,3-dihydro-2H-indol-2-one], the “nuclear condensation / apoptotic nuclei (Hoechst 33342)” value in the data set with CGNs was “significantly reversed neuronal apoptosis induced by MPP^+”. The “inhibition of intersegmental-vessel” value in data set [1] was “did not show this activity”. Moreover, in the data set with intracellular NO (measured at 8 hour), the “MPP+-stimulated NO production” value was “antagonized the stimulatory effect of MPP^+ on the NO production with an efficacy similar to 7-nitroindazole (15 μM)”. Also, the toxicity to zebrafish result in the data set with zebrafish is “showed toxicity to zebrafish”.

One may read the Ki as the equilibrium dissociation constant of an inhibitor or competing ligand from its target.
